Test results taken from patent US6900331B2, “Derivatives of epothilone B and D and synthesis thereof” (University of Notre Dame, priority 2002, dated 2005).

Key:
[1] = tested on: Human breast carcinoma cell line MCF-7; assay: Cytotoxicity assay (SRB), MCF-7; type: cell-based; details: 3 days exposure, SRB staining
Protocol: (§1) Cell lines and culture conditions: Human breast carcinoma cell line MCF-7, multi-drug resistant breast carcinoma cell line NCI/ADR, non-small cell lung carcinoma cell line NCI-H460 and glioma cell line SF-268 were obtained from the National Cancer Institute. All cell lines were maintained in RPMI-1640 medium (Gibco/BRL, Rockville, Md.) supplemented with 2 mM L-glutamine, 25 mM HEPES and 10% FBS (Hyclone, Logan, Utah). Cells were maintained in a humidified incubator at 37° C. in 5% CO2.
(§2) Cytoloxicity assays: Tumor cells were seeded in 100 μl at 5000 (MCF-7), 7500 (NCI/ADR), 5000 (NCI-H460) and 7500 (SF-268) cells per well in 96-well plates. Cells were allowed to adhere for 24 hours. Each compound ranging from 0.001 to 1000 nM in 100 μl was added to cells in triplicate wells. After 3 days, cells were fixed at 4° C. for 1 hour with 10% trichloroacetic acid and then stained with 0.2% sulforhodamine B (SRB)/1% acetic acid for 20 minutes at room temperature. The unbounded dye was rinsed away with 1% acetic acid, and the bounded SRB was then extracted with 200 μl of 10 mM Tris base. The absorbance was measured at 515 nm using a 96-well microtiter plate reader (Spectra Max 250, Molecular Devices). The IC50 values were calculated using a KaleidaGraph program. The experiments were performed twice.

tumor cell = assay: Tumor cell growth assays; type: cell-based; details: fold as active as epothilone B
[2] = tested on: multi-drug resistant breast carcinoma cell line NCI/ADR; assay: Cytotoxicity assay (SRB), NCI/ADR; type: cell-based, Human; details: 3 days exposure, SRB staining
Protocol: as §1, §2

tubulin = assay: Preliminary tubulin polymerization activity; type: biochemical; details: preliminary biological investigations
[3] = tested on: non-small cell lung carcinoma cell line NCI-H460; assay: Cytotoxicity assay (SRB), NCI-H460; type: cell-based, Human; details: 3 days exposure, SRB staining
Protocol: as §1, §2

glioma cell line SF-268 = assay: Cytotoxicity assay (SRB), SF-268; type: cell-based, Human; details: 3 days exposure, SRB staining
Protocol: as §1, §2

Row | Compound | IC50 [1] | activity relative to epothilone B itself (tumor cell) | IC50 [2] | tubulin polymerization activity (tubulin) | IC50 [3] | IC50 (glioma cell line SF-268) | IC50 ([1]; Homo sapiens, MCF7, 72 h) | IC50 ([2]; Homo sapiens, NCI/ADR-RES, 72 h) | IC50 ([3]; Homo sapiens, NCI-H460, 72 h) | IC50 (glioma cell line SF-268; Homo sapiens, SF-268, 72 h)
1 | C/C(=C\c1csc(C)n1)[C@H]1OC(=O)C[C@H](O)C(C)(C)C(=O)[C@H](C)[C@@H](O)[C@@H](C)CCC[C@@]2(C)O[C@H]2[C@@H]1C [Compound 3, (R)-C14-methyl epothilone B] | 3 nM | > 2 × | 23 nM | significant | 3 nM | 3 nM |  |  |  | 
2 | C/C(=C\c1csc(C)n1)[C@H]1OC(=O)C[C@H](O)C(C)(C)C(=O)[C@H](C)[C@@H](O)[C@@H](C)CCC[C@@]2(C)O[C@H]2[C@H]1C [Compound 4, (S)-C14-methyl epothilone B] | > 1000 nM |  | > 1000 nM |  | > 1000 nM | > 1000 nM |  |  |  | 
3 | C/C1=C/[C@H](C)[C@@H](/C(C)=C/c2csc(C)n2)OC(=O)C[C@H](O)C(C)(C)C(=O)[C@H](C)[C@@H](O)[C@@H](C)CCC1 [Compound 12, (S)-C14-methyl epothilone D] |  |  |  | significant |  |  | 35 nM | 238 nM | 42 nM | 42 nM
4 | C/C1=C/[C@@H](C)[C@@H](/C(C)=C/c2csc(C)n2)OC(=O)C[C@H](O)C(C)(C)C(=O)[C@H](C)[C@@H](O)[C@@H](C)CCC1 [Compound 13, (R)-C14-methyl epothilone D] | > 1000 nM |  | > 1000 nM | relatively weak activity | > 1000 nM | > 1000 nM |  |  |  | 
5 | C/C1=C/C[C@@H](/C(C)=C/c2csc(C)n2)OC(=O)C[C@H](O)C(C)(C)C(=O)[C@H](C)[C@@H](O)[C@@H](C)CCC1 [Epothilone D, reference compound] | 5 nM |  | 26 nM |  | 20 nM | 7 nM |  |  |  | 
